From US6162798A, “Inhibitor of atherosclerotic intimal thickening” (priority 1991, dated 2000)

Experiments:
[1] = tested on: J774 macrophages (J774-M.phi.); experiment: Inhibitory effects against adhesion of J774 macrophages; type: cell-based; details: Mus musculus, 48 hours pretreatment; for inhibition at 10 µM: drug concentration 10^-5 M; for inhibition at 1 µM: drug concentration 10^-6 M
Procedure: The inhibitory effects of the compounds in the present invention on cell adhesion of J774-M.phi. were measured by the following methods. […] Then, culture was continued with a control medium containing 0.2% of DMSO or with a medium containing a test compound for 48 hours as pretreatment. Then, the cells were scraped by means of a rubber policeman and suspended in the above medium. 200,000 cells were seeded to a 24 well multi-well plate., and cultured for 12 hours. After that, the cells attached to the well plates were scraped by a rubber policeman, and the number of cells was counted by a Coulter counter. The obtained results are represented by an average value of the number of cells in three wells at the time of the pretreatment, in each case, and the inhibition (%) on the adhesion was calculated in accordance with the following formula.

leukemic cells (HL-60) = experiment: Inhibitory effects against adhesion of leukemic cells (HL-60) induced by TPA; type: cell-based; details: Homo sapiens, HL-60, TPA-induced, 48 hours pretreatment; for inhibition at 10 µM: drug concentration 10^-5 M
Procedure: The inhibitory effects of the compounds in the present invention on cell adhesion of HL-60 were measured by the following methods. HL-60 cells were cultured in a RPMI 1640 medium containing 10% of FBS and an antibiotic at 37° C. in an atmosphere comprising 95% of air and 5% of carbon dioxide and then seeded to a 6 well multi-well plate in an amount of 2 ml per well at a cell density of 1,000,000/ml. A test compound dissolved in DMSO was added so that the final DMSO concentration would be 0.2%, and incubation was carried out for 48 hours for pretreatment. Then, 500,000 cells were seeded to a 24 well multi-well plate, and 0.02 mM of phorbol myristate acetate (TPA) dissolved in ethanol, was added in an amount of 1/250 (v/v) of the culture medium, and then culture was continued for 12 hours. After that, the cells were washed with PBS and the cells attached to the well plates were scraped off by trypsinization and suspended in Isoton, and the number of cells were counted by a Coulter counter. A control test was carried out by adding DMSO alone.

[2] = tested on: aortic medial smooth muscle cells (M-SMC); experiment: Inhibitory effects on migration of aortic medial smooth muscle cells (Boyden's chamber); type: cell-based, Sprague Dawley male rat; details: migration of rat M-SMC, drug concentration 10^-5 M, 4 hours
Procedure: The inhibitory effects of the compounds of the present invention on migration of M-SMC were measured by the following methods. Arterial medial slices of the thoracic of aorta of a Sprague Dawley male rat were cultured by using a medium of Dulbecco's Modified Eagle (DME) containing 10% fetal bovine serum (FBS) at 37° C. in an atmosphere comprising 95% of air and 5% of carbon dioxide for 3 or 4 weeks. The aortic medial smooth muscle cells grown from the arterial medial slices were subcultured by 1:2 split of cell density for stable subculture. After the three or four times subculture, the cells in the state of confluency were subjected to trypsinized and then suspended in the above medium at a cell density of 500,000 cells per ml. To the cell suspension, a test compound dissolved in dimethylsulfoxide (DMSO) was added so that the final DMSO concentration would be 0.2%, and the cell suspension was pre-incubated at 37° C. for 30 minutes. As a control, DMSO was added alone at the same concentration. In the lower compartment of Boyden's chamber partitioned with a nitrocellulose membrane, 10 ng/ml of a platelet-derived growth factor (PDGF) or DME medium containing a 10% SMC-conditioned DME medium (SMC-CM) obtained from 48 hours conditioning was filled as a migration factor. In the upper compartment thereof, 1 ml of the cell suspension was loaded, and incubation was conducted at 37° C. for 4 hours in a culture condition. As the blank, the DME medium without migration factor was filled in the lower compartment. After 4 hour incubation, the cells adhered to the upper side of the nitrocellulose membrane were removed, and the cells migrated to the lower side of the membrane were fixed and stained by Diff Quik. The number of migrated cells was counted in the 10 fields by a light microscope at 400 x HPF.

[3] = tested on: aortic medial smooth muscle cells (M-SMC); experiment: Inhibitory effects on proliferation of aortic medial smooth muscle cells (cell count); type: cell-based, healthy Japanese white rabbit; details: Oryctolagus cuniculus, fold increase of cell number second to fifth day, read-out: Inhibition (%) Media; for inhibition at 10 µM: drug concentration 10^-5 M; for inhibition at 1 µM: drug concentration 10^-6 M
Procedure: (§1) The inhibitory effects of the compounds of the present invention on the proliferation of I-SMC and M-SMC were measured by the following methods. […] After twice or three times subculture of cells, the cells in the state of confluency were trypsinized and suspended in the above medium so that the cell density would be 20,000 cells/ml. Then, the 10,000 cells were seeded and cultured on a 24 well multi-well plate. After incubation for 6 hours, the medium was replaced by 0.5 ml of a control medium or a medium containing a test compound. At the same time, the number of cells initially attached to the plate was counted and taken as the initial cell number (I). The test compound was added to the medium as described in Example 1. As the control, DMSO was added alone so that the final concentration would be 0.2%. The medium change was carried out every 2 days, and on the first, second, third, fifth and seventh days, the cells were trypsinized and suspended in Isoton and counted cell number by a Coulter counter. The obtained results were represented by an average number of cells of three wells in each case, and the inhibition (%) of the fold increase of the cell number from the second day to the fifth day was calculated in accordance with the following formula.

[4] = tested on: aortic medial smooth muscle cells (M-SMC); experiment: Inhibitory effect on 3H-thymidine uptake in aortic medial smooth muscle cells; type: cell-based, healthy Japanese white rabbit; details: Oryctolagus cuniculus, 24 hours with compound, read-out: Inhibition (%) Media; for inhibition at 10 µM: drug concentration 10^-5 M; for inhibition at 1 µM: drug concentration 10^-6 M
Procedure: (§2) The inhibitory effects of the compound of the present invention on ^3 H-thymidine uptake in I-SMC and M-SMC were measured by the following methods. M-SMC and I-SMC are obtained from aortic media of a healthy Japanese white rabbit and from aortic intima of an atherosclerotic Japanese white rabbit as mentioned in Example 2. After three or four times subculture, the cells in the state of confluency were trypsinized and suspended in a DME medium containing 10% of FBS and an antibiotic so that the cell density would be 40,000 cells/ml. The 10,000 cells were seeded to a 48 well multi-well plate. After 4 days culture, the medium was replaced by the control medium or the medium containing a test compound as used in Example 2, and culture was continued for 24 hours. Then, 1 μCi ([…]) of ^3 H-thymidine was added thereto, and culture was continued for 3 hours. The cells were washed three times with a phosphate buffered physiological saline (PBS) and treated with chilled 5% trichloroacetic acid (TCA). The insoluble-fraction was washed with chilled TCA and then dissolved in a 0.5N potassium hydroxide aqueous solution. The ^3 H radioactivity was measured by a liquid scintillation counter and the protein content was measured. […] The inhibition (%) was calculated in accordance with the following formula.

[5] = tested on: aortic intimal smooth muscle cells (I-SMC); experiment: Inhibitory effects on proliferation of aortic intimal smooth muscle cells (cell count); type: cell-based, atherosclerotic Japanese white rabbit; details: Oryctolagus cuniculus, fold increase of cell number second to fifth day, read-out: Inhibition (%) Intima; for inhibition at 10 µM: drug concentration 10^-5 M; for inhibition at 1 µM: drug concentration 10^-6 M
Procedure: as §1

[6] = tested on: aortic intimal smooth muscle cells (I-SMC); experiment: Inhibitory effect on 3H-thymidine uptake in aortic intimal smooth muscle cells; type: cell-based, atherosclerotic Japanese white rabbit; details: Oryctolagus cuniculus, 24 hours with compound, read-out: Inhibition (%) Intima; for inhibition at 10 µM: drug concentration 10^-5 M; for inhibition at 1 µM: drug concentration 10^-6 M
Procedure: as §2

[7] = migration factor 10 ng/ml PDGF, read-out: Inhibition (%) PDGF
[8] = migration factor 10% SMC-conditioned medium, read-out: Inhibition (%) SMC-CM

| SMILES | inhibition at 10 µM [1] [%] | inhibition at 1 µM [1] [%] | inhibition at 10 µM (leukemic cells (HL-60)) [%] | inhibition at 10 µM [2, 7] [%] | inhibition at 10 µM [2, 8] [%] | inhibition at 10 µM [3] [%] | inhibition at 1 µM [3] [%] | inhibition at 10 µM [4] [%] | inhibition at 1 µM [4] [%] | inhibition at 10 µM [5] [%] | inhibition at 1 µM [5] [%] | inhibition at 10 µM [6] [%] | inhibition at 1 µM [6] [%] | inhibition at 1 µM (leukemic cells (HL-60); drug concentration 10^-6 M) [%] | inhibition at 0.1 µM (leukemic cells (HL-60); drug concentration 10^-7 M) [%] |
| --- | --- | --- | --- | --- | --- | --- | --- | --- | --- | --- | --- | --- | --- | --- | --- |
| CC[C@H](C)C(=O)O[C@H]1C[C@H](O)C=C2C=C[C@H](C)[C@H](CC[C@@H](O)C[C@@H](O)CC(=O)O)[C@H]21 [Pravastatin, reference compound] | 41.3 | 40 | -2.8 | 61.8 | 26.2 | -11.7 | 8.7 | -34.3 | 8.7 | 1.3 | 1.3 | -7.2 | -7 | – | – |
| Cc1nn(C)c2nc(C3CC3)c(/C=C/[C@@H]3C[C@@H](O)CC(=O)O3)c(-c3ccc(F)cc3)c12 (relative stereo) [Test compound 2, (E)-trans-6-(2'-[6"-cyclopropyl-1',3'-dimethyl-4'-(4'"-fluorophenyl)pyrazolo[3,4-b]pyridin-5"-yl]ethenyl)-4-hydroxy-3,4,5,6-tetrahydro-2H-pyran-2-one] | – | – | – | 98.2 | 32.8 | 86.5 | 4.7 | 88.4 | 36.4 | 98.2 | 84.6 | 91.5 | 11.7 | – | – |
| CCc1c(C)sc2nc(C3CC3)c(/C=C/[C@@H]3C[C@@H](O)CC(=O)O3)c(-c3ccc(F)cc3)c12 (relative stereo) [Test compound 3, (E)-trans-6-(2'-[2'-cyclopropyl-5'-ethyl-3'-(4'"-fluorophenyl)-6'-methylthieno[2,3-b]pyridin-3'-yl]ethenyl)-4-hydroxy-3,4,5,6-tetrahydro-2H-pyran-2-on] | 92.4 | 92.2 | 96.4 | 100 | 41.7 | 100 | 31.5 | 92.2 | 53.6 | 100 | 100 | 94.1 | 69.9 | 92.2 | 4.8 |
